Measured values reported in patent US8293786B2 (Alltranz Inc., priority 2007, dated 2012).

System: human abdominal skin
Assay: In vitro human skin permeation and skin disposition, flow-through diffusion cells (Example 1)
Format: in vitro ADME
Protocol: Flow through diffusion cells were used for the permeation studies. HEPES-buffered Hanks' balanced salts containing 40% (polyethylene glycol) PEG 400 with gentamicin was used for the receiver compartment. Donor solution was comprised of either 100% propylene glycol (PG) solution or a rubbed in gel formulation. […] Drug accumulation in the skin after a 24 or 36 h diffusion experiment was determined as μmol/g wet tissue weight.
The skin samples used in the following experiments were obtained from abdominal reduction surgery and dermatomed to a thickness of approximately 200 μm. The skin samples used herein were frozen at −20° C. for less than six months.
1 L of receiver fluid was prepared by measuring 1 L of nanopure water into a graduated cylinder. 90% of the water was added to an Erlenmeyer flask. Hanks' salts (1 bottle) were added to the water along with 5.96 g of HEPES and 0.35 g of sodium bicarbonate. The pH of the solution was adjusted with 1 N sodium hydroxide solution to pH 7.4. The remaining water was added and the receiver fluid was filtered through a 0.2μ filter (Millipore, Billerica, Mass.). 50 mg of gentamicin was added to the filtered receiver fluid and 400 mL of the receiver fluid was removed and replaced with 400 mL of PEG 400.
Two different formulations were used for charging the donor compartment. Drugs were made up in either 100% PG or a gel formulation. For the PG solution, approximately 50-120 mg of the appropriate drug was weighed into a glass silanized culture tube. The gel formulation resulted from the mixing of absolute ethanol, nanopure water, IPM, Carbopol® 980, 0.1 N aqueous sodium hydroxide solution and the respective drug.
Dermatomed skin harvested from abdominoplasty, stored at −20° C., was used for the experiments. A PermeGear flow-through (In-Line, Riegelsville, Pa.) diffusion cell system was used for the skin permeation studies.
Diffusion cells were kept at 32° C. with a circulating water bath. Human epidermal skin was arranged in the diffusion cell with stratum corneum (upper layer of skin) facing the donor compartment. Permeation area of the skin was 0.95 cm^2. Data was collected from a human skin donor with three to four diffusion cells per treatment.
Receiver solution was HEPES-buffered Hanks' balanced salts with gentamicin containing 40% PEG 400 at a pH of 7.4 and flow rate was adjusted to 0.8 mL/h. Each cell was charged with 0.050 mL of the respective drug formulation (donor solution) or with 0.035 mL of gel formulation which was rubbed into the skin for 15 sec with a Teflon coated rod. The formulation was applied to ensure complete coverage. Diffusion cells were covered with a cap for the duration of the study.
Samples were collected into scintillation vials in 3 h increments for either 24 h or 36 h. All the samples were stored at 4° C. until extracted. An aliquot (0.5 mL) of the diffusion sample was placed into a silanized HPLC vial and 0.5 mL of acetonitrile was added to the sample, capped and vortexed.
At the end of the experiment, the skin tissue was removed from the diffusion cell, rinsed with nanopure water, and blotted dry with a paper towel. The skin was tape stripped twice using book tape (Scotch™, 3M, St. Paul, Minn.) to remove drug formulation adhering to the tissue surface. The area of skin in contact with the drug was cut out, chopped up and placed in a pre-weighed scintillation vial. Ten mL of acetonitrile was added to the vial and drug was extracted from the skin by shaking at room temperature overnight. The following day a 0.1 mL aliquot was removed and diluted with an additional 0.9 mL of acetonitrile. The diluted sample was added to the silanized HPLC vial for analysis.
At the end of the experiment, a 0.01 mL aliquot of the PG donor solution was removed and added to a scintillation vial containing 10 mL of acetonitrile. The vials were vortexed and then sonicated for 15 min. An aliquot of 1 mL was removed and transferred into a silanized HPLC vial for analysis.

[1] = Table 3, in propylene glycol, prodrug applied
[2] = Table 3, in propylene glycol, CBD high conc.
[3] = Table 3, in propylene glycol, CBD low conc.
[4] = Table 4, in propylene glycol, CBD high conc.
[5] = Table 4, in propylene glycol, CBD low conc.
[6] = Table 5, in propylene glycol, CBD high conc.
[7] = Table 5, in propylene glycol, CBD low conc.
[8] = Table 11, in gel formulation, as applied compound (CBD or intact prodrug)
[9] = Table 12, in gel formulation, as applied compound (CBD or intact prodrug)
[10] = Table 13, in propylene glycol, 36 h, as applied compound (CBD or intact prodrug)
[11] = Table 13, in propylene glycol, as applied compound (CBD or intact prodrug)
[12] = Table 14, in propylene glycol, as applied compound (CBD or intact prodrug)
[13] = Table 11, in gel formulation, CBD from applied prodrug
[14] = Table 11, in gel formulation, prodrug applied, as total CBD equivalents (cannabidiol and/or prodrug)
[15] = Table 12, in gel formulation, CBD from applied prodrug
[16] = Table 12, in gel formulation, prodrug applied, as total CBD equivalents
[17] = Table 13, in propylene glycol, 36 h, CBD from applied prodrug
[18] = Table 13, in propylene glycol, 36 h, prodrug applied, as total CBD equivalents
[19] = Table 13, in propylene glycol, CBD from applied prodrug
[20] = Table 13, in propylene glycol, prodrug applied, as total CBD equivalents

C=C(C)[C@@H]1CCC(C)=C[C@H]1c1c(OC(=O)CCN(C)C)cc(CCCCC)cc1OC(=O)CCN(C)C [ALL00101, CBD bis(3-(dimethylamino)propionate)]
flux enhancement (in words) (Example 1): No flux enhancement | form in which the prodrug permeated through the human skin (Example 1): permeated through the human skin as cannabidiol | found in the skin disposition (tissue) samples (Example 1): Both cannabidiol and intact prodrug were found | intact prodrug in the diffusion samples (receiver samples) (Example 1): No intact prodrug was found | total cannabidiol in the skin compared to cannabidiol (Example 1): higher | 24 h cumulative amt [1]: 11.0 ± 0.1 nmol | Flux [1]: 1.0 ± 0.4 nmol/cm^2/h | Lag time [1]: 11.7 ± 5.1 h | 24 h skin conc (Table 3, in propylene glycol, prodrug applied, found in skin as CBD): 17.4 ± 4.3 (CBD) μmol/g | 24 h skin conc (Table 3, in propylene glycol, prodrug applied, found in skin as PD (prodrug)): 29.2 ± 7.6 (PD) μmol/g

C=C(C)[C@@H]1CCC(C)=C[C@H]1c1c(O)cc(CCCCC)cc1O [cannabidiol, reference compound]
24 h cumulative amt (Table 2, in propylene glycol): 222.7 ± 74.0 nmol | 24 h skin conc (Table 2, in propylene glycol): 190.8 ± 10.7 µmol/g | Flux (Table 2, in propylene glycol): 10.4 ± 2.0 nmol/cm^2/h | 24 h cumulative amt [2]: 89.2 ± 15.0 nmol | 24 h skin conc [2]: 223.1 ± 75.3 µmol/g | Flux [2]: 7.8 ± 1.1 nmol/cm^2/h | 24 h cumulative amt [3]: 50.1 ± 28.1 nmol | 24 h skin conc [3]: 26.3 ± 14.1 µmol/g | Flux [3]: 4.5 ± 2.5 nmol/cm^2/h | 24 h cumulative amt [4]: 110.4 ± 18.9 nmol | 24 h skin conc [4]: 167.6 ± 76.7 µmol/g | Flux [4]: 8.5 ± 2.4 nmol/cm^2/h | 24 h cumulative amt [5]: 63.5 ± 47.5 nmol | 24 h skin conc [5]: 112.5 ± 61.8 µmol/g | Flux [5]: 6.0 ± 3.3 nmol/cm^2/h | 24 h cumulative amt [6]: 42.4 ± 10.7 nmol | 24 h skin conc [6]: 104.9 ± 51.0 µmol/g | Flux [6]: 3.9 ± 0.0 nmol/cm^2/h | 24 h cumulative amt [7]: 56.9 ± 39.4 nmol | 24 h skin conc [7]: 75.3 ± 33.1 µmol/g | Flux [7]: 5.7 ± 3.5 nmol/cm^2/h | 24 h cumulative amt (Table 6, in propylene glycol): 27.5 ± 32.5 nmol | 24 h skin conc (Table 6, in propylene glycol): 49.2 ± 15.2 µmol/g | Flux (Table 6, in propylene glycol): 4.3 ± 2.4 nmol/cm^2/h | 36 h cumulative amt (Table 7, in propylene glycol): 15.7 ± 5.4 nmol | 36 h skin conc. (Table 7, in propylene glycol): 44.1 ± 15.5 µmol/g | Flux (Table 7, in propylene glycol, 36 h experiment): 1.0 ± 0.7 nmol/cm^2/h | 36 h cumulative amt (Table 8, in gel formulation): 52.0 ± 42.7 nmol | 36 h skin conc. (Table 8, in gel formulation): 28.4 ± 8.8 µmol/g | Flux (Table 8, in gel formulation, 36 h experiment): 2.0 ± 2.3 nmol/cm^2/h | 24 h cumulative amt (Table 9, in gel formulation): 1.9 ± 1.3 nmol | Flux (Table 9, in gel formulation): 0.10 ± 0.06 nmol/cm^2/h | 24 h skin conc (Table 9, in gel formulation, as applied compound (CBD, or PD = intact prodrug)): 24.6 ± 3.6 µmol/g | 24 h cumulative amt (Table 10, in propylene glycol): 164.5 ± 34.1 nmol | Flux (Table 10, in propylene glycol): 8.0 ± 0.9 nmol/cm^2/h | 24 h skin conc (Table 10, in propylene glycol, as applied compound (CBD, or PD = intact prodrug)): 85.8 ± 24.3 µmol/g | 24 h cumulative amt [8]: 13.3 ± 2.6 nmol | 24 h skin conc [8]: 29.0 ± 10.2 µmol/g | Flux [8]: 1.0 ± 0.1 nmol/cm^2/h | 24 h cumulative amt [9]: 2.9 ± 0.1 nmol | 24 h skin conc [9]: 88.4 ± 36.3 µmol/g | Flux [9]: 0.24 ± 0.003 nmol/cm^2/h | Flux [10]: 4.2 ± 0.0 nmol/cm^2/h | 36 h cumulative amt [11]: 94.5 ± 0.0 nmol | 36 h skin conc. [11]: 39.4 ± 0.0 µmol/g | Flux (Table 14, in propylene glycol, 36 h, as applied compound (CBD or intact prodrug)): 8.4 ± 2.4 nmol/cm^2/h | 36 h cumulative amt [12]: 93.6 ± 38.0 nmol | 36 h skin conc. [12]: 92.9 ± 4.8 µmol/g

C=C(C)C1CCC(C)=CC1c1c(OC(=O)CN(C)C)cc(CCCCC)cc1OC(=O)CN(C)C (stereo not drawn) [ALL00105, CBD bis(N,N-dimethylglycinate)]
form in which the prodrug permeated through the human skin (Example 1): permeated primarily as intact prodrug | 24 h cumulative amt [13]: 4.1 ± 1.5 nmol | 24 h skin conc [13]: 2.5 ± 2.1 µmol/g | Flux [13]: 0.3 ± 0.02 nmol/cm^2/h | Lag time [13]: 0.8 ± 0.4 h | 24 h cumulative amt [8]: 66.8 ± 9.0 nmol | 24 h skin conc [8]: 82.1 ± 58.9 µmol/g | Flux [8]: 2.9 ± 0.5 nmol/cm^2/h | Lag time [8]: 7.9 ± 3.3 h | 24 h cumulative amt [14]: 76.5 ± 7.9 nmol | 24 h skin conc [14]: 84.5 ± 60.7 µmol/g | Flux [14]: 3.3 ± 0.7 nmol/cm^2/h | Lag time [14]: 1.2 ± 0.1 h | 24 h cumulative amt [15]: 1.1 ± 0.02 nmol | 24 h skin conc [15]: 2.2 ± 2.1 µmol/g | Flux [15]: 0.06 ± 0.02 nmol/cm^2/h | Lag time [15]: 1.0 ± 0.6 h | 24 h cumulative amt [9]: 7.3 ± 0.03 nmol | 24 h skin conc [9]: 27.5 ± 7.4 µmol/g | Flux [9]: 0.37 ± 0.01 nmol/cm^2/h | Lag time [9]: 3.9 ± 4.8 h | 24 h cumulative amt [16]: 8.9 ± 0.04 nmol | 24 h skin conc [16]: 29.7 ± 9.1 µmol/g | Flux [16]: 0.41 ± 0.03 nmol/cm^2/h | Lag time [16]: 0.9 ± 1.2 h | Flux [17]: 1.4 ± 0.2 nmol/cm^2/h | Lag time [17]: 12.6 ± 1.3 h | Flux [10]: 0.5 ± 0.01 nmol/cm^2/h | Lag time [10]: 7.5 ± 0.0 h | Flux [18]: 1.9 ± 0.2 nmol/cm^2/h | Lag time [18]: 10.0 ± 2.9 h | 36 h cumulative amt [19]: 32.6 ± 3.0 nmol | 36 h skin conc. [19]: 2.8 ± 3.8 µmol/g | 36 h cumulative amt [11]: 14.7 ± 3.2 nmol | 36 h skin conc. [11]: 8.8 ± 0.0 µmol/g | 36 h cumulative amt [20]: 47.2 ± 0.1 nmol | 36 h skin conc. [20]: 7.2 ± 10.1 µmol/g | cumulative amount of total cannabidiol equivalents delivered, compared to cannabidiol (gel formulation): 3.1-5.9 fold | decrease of lag time of total cannabidiol compared to the parent drug (gel formulation studies): 7 to 8 h | mean flux enhancement (mean between the two gel formulation experiments): 2.5 | enhancement with the propylene glycol donor solution (propylene glycol donor solution): did not show any enhancement
